The EC50 is the concentration at which the effect is half-maximal.

Consider 14 compounds from US8889848B2, “HCV genotype 3 replicons” (priority 2011, dated 2014).

Holding throughout (assay type): cell-based, HCV
For assay [1], the system named is Pi-Rluc-GT3a-P89L/A166T replicon. The assay can be described thus: Transient replicon antiviral assay, Pi-Rluc-GT3a-P89L/A166T in 1C cells. As to conditions: for GT3a(P89L/A166T)/Ib EC50 Ratio: EC50 GT3a P89L/A166T divided by EC50 GT1b; for EC50: transient transfection, 1C cells, 3 days, renilla luciferase, mean of at least two experiments. As for the experimental part: (§1) Replicon RNA were electroporated into 1C cells as described above. After transfection, cells were quickly transferred into 100 mL of pre-warmed culture medium, and 90 μl was seeded in 384-well plates at a density of 2,000 cells/well. Cells were treated with three-fold serial drug dilutions at 10 different concentrations. Cell plates were incubated at 37° C. for 3 days, after which culture medium was removed and cells were assayed for luciferase activity as markers for replicon levels. Luciferase expression was quantified using a commercial luciferase assay (Promega). Luciferase levels were converted into percentages relative to the levels in the untreated controls (defined as 100%), and data were fitted to the logistic dose-response equation y=a/[1+(x/b)^c] using XLFit4 software (IDBS, Emeryville, Calif.).
(§2) To investigate antiviral activity against genotype 3a, five different classes of HCV inhibitors were tested in a transient assay of the genotype 3a Pi-Rluc replicon: NS3 protease, NS5A, NS5B active site, NS5B non-active site, and host factor inhibitors. A standard genotype 1b Pi-Rluc replicon was tested in parallel. The transient replicon replication assays were performed in 1C cells to minimize the potential influence of host cell difference on compound antiviral activities. EC50 values against both genotype 1b and genotype 3a replicons were successfully generated for all inhibitors using a high-throughput 384-well assay measuring Rluc activity (Table 10).
(§3) Five different classes of HCV inhibitors as listed in the first column were evaluated for their antiviral activities against GT1b and GT3a Pi-Rluc replicon in a transient transfection high-throughput 384-well format by measuring renilla luciferase activity. Data presented in the table represent the mean of at least two independent experiments.
Background: A replicon is a self-replicating genome or part of one, used to study replication in cells.

Assay [2] concerns Pi-Rluc-GT3a-P89L/K583E replicon. The experiment in a line: Transient replicon antiviral assay, Pi-Rluc-GT3a-P89L/K583E in 1C cells. The conditions noted are these: for GT3a(P89L/K583E)/Ib EC50 Ratio: EC50 GT3a P89L/K583E divided by EC50 GT1b; for EC50: transient transfection, 1C cells, 3 days, renilla luciferase, mean of at least two experiments. The method, then:
as §1, §2, §3

Assay [3] deals with genotype 1b Pi-Rluc replicon. The assay can be described thus: Transient replicon antiviral assay, Pi-Rluc-GT1b in 1C cells. The conditions noted are these: transient transfection, 3 days, renilla luciferase, mean of at least two experiments. As for the experimental part:
as §1, §2, §3

The test system of assay [4] is genotype 3a Pi-Rluc replicon. The experiment in a line: Transient genotype 3a Pi-Rluc replicon assay, summary over both GT3a replicons. As to conditions: for EC50: read-out: EC50 values against genotype 3a. The method, then:
as §1, §2

Like-named read-outs stand apart in the source and are kept apart here.

`COc1ccc2c(O[C@@H]3C[C@H]4C(=O)N[C@]5(C(=O)O)C[C@H]5/C=C\CCCCC[C@H](NC(=O)OC5CCCC5)C(=O)N4C3)cc(-c3csc(NC(C)C)n3)nc2c1` [BILN-2061]: the “GT3a(P89L/A166T)/Ib EC50 Ratio” value in assay [1] was 478. In addition, the EC50 in assay [1] (Hepatitis C virus, GT3A, 72 h) turned out to be 447 nM; in assay [2] (Hepatitis C virus, GT3A, 72 h), 95 nM; in assay [3] (Hepatitis C virus, 72 h), 0.93 nM. Further, the “GT3a(P89L/K583E)/Ib EC50 Ratio” value in assay [2] worked out at 102.
In the case of `COC(=O)N[C@H](C(=O)N1CCC[C@H]1c1nc(-c2ccc(-c3ccc(-c4c[nH]c([C@@H]5CCCN5C(=O)[C@@H](NC(=O)OC)C(C)C)n4)cc3)cc2)c[nH]1)C(C)C` [BMS-790052], the “GT3a(P89L/A166T)/Ib EC50 Ratio” value in assay [1] is 11. In addition, the EC50 was 0.31 nM in assay [1] (Hepatitis C virus, GT3A, 72 h); 0.45 nM in assay [2] (Hepatitis C virus, GT3A, 72 h); 0.03 nM in assay [3] (Hepatitis C virus, 72 h); 0.31 to 0.45 nM in assay [4] (Hepatitis C virus). In assay [2], the “GT3a(P89L/K583E)/Ib EC50 Ratio” value was 15. In addition, the “fold less active (less potent) against genotype 3a versus genotype 1b” value (“fold less active (less potent)” for short) in assay [4] (transient Pi-Rluc replicons) is given as 11 fold.
For the compound `CC(C)(C)NC(=O)N[C@H](C(=O)N1C[C@H]2[C@@H]([C@H]1C(=O)NC(CC1CCC1)C(=O)C(N)=O)C2(C)C)C(C)(C)C` (stereo partly shown) [Boceprevir, boceprevir], the “GT3a(P89L/A166T)/Ib EC50 Ratio” value in assay [1] came out at 2.44. The EC50 amounted to 460 nM in assay [1] (Hepatitis C virus, GT3A, 72 h) and 273 nM in assay [2] (Hepatitis C virus, GT3A, 72 h). Further, the “GT3a(P89L/K583E)/Ib EC50 Ratio” value in assay [2] is reported as 1.45.
On to `CCc1cc(CC[C@]2(C3CCCC3)CC(O)=C(Cc3nc4nc(C)cc(C)n4n3)C(=O)O2)cc(CC)n1` [Filibuvir, filibuvir], for which the “GT3a(P89L/A166T)/Ib EC50 Ratio” value in assay [1] was 17. The EC50 in assay [1] (Hepatitis C virus, GT3A, 72 h) was 2040 nM; in assay [2] (Hepatitis C virus, GT3A, 72 h) it was 895 nM; in assay [3] (Hepatitis C virus, 72 h), 121 nM. Besides, the “GT3a(P89L/K583E)/Ib EC50 Ratio” value in assay [2] is on record as 7.4. Moreover, in assay [4] (transient Pi-Rluc replicons), the “fold less active (less potent)” value is given as “approximately 17 fold”.
For `COC(=O)N[C@H](C(=O)N1CC2(CC2)C[C@H]1c1nc(-c2ccc3c(c2)C(F)(F)c2cc(-c4ccc5[nH]c([C@@H]6[C@H]7CC[C@H](C7)N6C(=O)[C@@H](NC(=O)OC)C(C)C)nc5c4)ccc2-3)c[nH]1)C(C)C` [GS-5885], in assay [1], the “GT3a(P89L/A166T)/Ib EC50 Ratio” value was 22370. Moreover, the EC50 in assay [1] is 92 nM; in assay [2], 40 nM; in assay [3], 0.0041 nM; in assay [4] (range over the two GT3a Pi-Rluc replicons) it was 40 to 92 nM. In assay [2], the “GT3a(P89L/K583E)/Ib EC50 Ratio” value is 9758. The “fold less active (less potent)” value in assay [4] (transient Pi-Rluc replicons) is reported as “approximately 10.000 fold”.
`CC(C)OC(=O)[C@H](C)N[P@](=O)(OC[C@H]1O[C@@H](n2ccc(=O)[nH]c2=O)[C@](C)(F)[C@@H]1O)Oc1ccccc1` [GS-7977]: the “GT3a(P89L/A166T)/Ib EC50 Ratio” value in assay [1] worked out at 0.31. Further, the EC50 in assay [1] came to 12 nM; in assay [2], 5.8 nM; in assay [3] it was 40 nM. Moreover, the “GT3a(P89L/K583E)/Ib EC50 Ratio” value in assay [2] is on record as 0.15.
Consider `Fc1ccccc1-c1nc2ccn(Cc3ccc(-c4ccc(C(F)(F)F)cc4C(F)(F)F)nn3)cc-2n1` [GS-9190], for which, in assay [1], the “GT3a(P89L/A166T)/Ib EC50 Ratio” value came to 17 and the EC50 worked out at 42 nM. Besides, in assay [2], the “GT3a(P89L/K583E)/Ib EC50 Ratio” value was 18 and the midpoint of the response, the EC50, lay at 46 nM. Also, the EC50 in assay [3] came to 3 nM. Moreover, the “fold less active (less potent)” value in assay [4] (transient Pi-Rluc replicons) is on record as “approximately 17 fold”.
As to `CC[C@@H]1C[C@]1(NC(=O)[C@@H]1C[C@@H](Oc2cc(-c3csc(NC(C)C)n3)nc3c(Cl)c(OCCN4CCOCC4)ccc23)CN1C(=O)[C@@H](NC(=O)O[C@@H]1C[C@@H]2C[C@@H]2C1)C(C)(C)C)C(=O)O` [GS-9451], in assay [1], the “GT3a(P89L/A166T)/Ib EC50 Ratio” value came to 173 and the midpoint of the response, the EC50, lay at 1650 nM. In addition, in assay [2], the “GT3a(P89L/K583E)/Ib EC50 Ratio” value was 97 and the EC50 is 921 nM. Besides, in assay [3], the response was half-maximal at 10 nM (EC50).
Consider `CC1=CC[C@H](C(=O)N(c2cc(C#CC(C)(C)C)sc2C(=O)O)[C@H]2CC[C@](O)(CO[C@H]3CCOC3)CC2)CC1` [GS-9669], for which, in assay [1], the “GT3a(P89L/A166T)/Ib EC50 Ratio” value came out at 61 and the response was half-maximal at 230 nM (EC50). Besides, in assay [2], the “GT3a(P89L/K583E)/Ib EC50 Ratio” value amounted to 33 and the response was half-maximal at 125 nM (EC50). Further, the response in assay [3] was half-maximal at 3.8 nM (EC50). In addition, the “fold less active (less potent)” value in assay [4] (transient Pi-Rluc replicons) is reported as roughly 60 fold.
As for `CNC(=O)c1c(-c2ccc(F)cc2)oc2cc(N(CCO)S(C)(=O)=O)c(C3CC3)cc12` [HCV-796], in assay [1], the “GT3a(P89L/A166T)/Ib EC50 Ratio” value came out at 0.14. Besides, the EC50 in assay [1] (Hepatitis C virus, GT3A, 72 h) amounted to 2.8 nM; in assay [2] (Hepatitis C virus, GT3A, 72 h) it was 2.4 nM; in assay [3] (Hepatitis C virus, 72 h), 20 nM. Also, the “GT3a(P89L/K583E)/Ib EC50 Ratio” value in assay [2] is listed as 0.12. Besides, in assay [4] (transient Pi-Rluc replicons), the “fold more active against genotype 3a compared with genotype 1b” value is roughly 7 fold.
For `CN(C)CCN(C)[C@H]1COc2ccccc2-c2c(C3CCCCC3)c3ccc(C(=O)O)cc3n2C1` [MK-3281], the “GT3a(P89L/A166T)/Ib EC50 Ratio” value in assay [1] worked out at 0.47. The EC50 in assay [1] (Hepatitis C virus, GT3A, 72 h) was 277 nM; in assay [2] (Hepatitis C virus, GT3A, 72 h) it was 180 nM; in assay [3] (Hepatitis C virus, 72 h), 587 nM. Besides, the “GT3a(P89L/K583E)/Ib EC50 Ratio” value in assay [2] amounted to 0.31. Further, in assay [4] (transient Pi-Rluc replicons), the “fold more active against genotype 3a compared with genotype 1b” value is given as “about 2 fold”.
Regarding `C=C[C@@H]1C[C@]1(NC(=O)[C@@H]1C[C@@H]2CN1C(=O)[C@H](C(C)(C)C)NC(=O)O[C@@H]1C[C@H]1CCCCCc1nc3ccc(OC)cc3nc1O2)C(=O)NS(=O)(=O)C1CC1` [MK-5172], the “GT3a(P89L/A166T)/Ib EC50 Ratio” value in assay [1] is given as 74. The EC50 is 60 nM in assay [1] (Hepatitis C virus, GT3A, 72 h); 23 nM in assay [2] (Hepatitis C virus, GT3A, 72 h); 0.81 nM in assay [3] (Hepatitis C virus, 72 h). For the same compound, the “GT3a(P89L/K583E)/Ib EC50 Ratio” value in assay [2] was 28.
In the case of `C/C=C/C[C@@H](C)[C@@H](O)[C@H]1C(=O)N[C@@H](CC)C(=O)N(C)[C@H](SCCN(C)C)C(=O)N(C)[C@@H](CC(C)(C)O)C(=O)N[C@@H](C(C)C)C(=O)N(C)[C@@H](CC(C)C)C(=O)N[C@@H](C)C(=O)N[C@H](C)C(=O)N(C)[C@@H](CC(C)C)C(=O)N(C)[C@@H](CC(C)C)C(=O)N(C)[C@@H](C(C)C)C(=O)N1C` [SCY-635], the “GT3a(P89L/A166T)/Ib EC50 Ratio” value in assay [1] is reported as 1.2. Moreover, the EC50 in assay [1] (Hepatitis C virus, GT3A, 72 h) turned out to be 78 nM; in assay [2] (Hepatitis C virus, GT3A, 72 h), 59 nM; in assay [3] (Hepatitis C virus, 72 h) it was 65 nM. The “GT3a(P89L/K583E)/Ib EC50 Ratio” value in assay [2] worked out at 0.91. For the same compound, the “potency against genotype 1b and 3a replicons compared (in words)” value in assay [4] (transient Pi-Rluc replicons) is “equivalent potency”.
Take `CCC[C@H](NC(=O)[C@@H]1[C@H]2CCC[C@H]2CN1C(=O)[C@@H](NC(=O)[C@@H](NC(=O)c1cnccn1)C1CCCCC1)C(C)(C)C)C(=O)C(=O)NC1CC1` [Telaprevir, telaprevir]: the “GT3a(P89L/A166T)/Ib EC50 Ratio” value in assay [1] was 1.6. The EC50 in assay [1] (Hepatitis C virus, GT3A, 72 h) came to 650 nM; in assay [2] (Hepatitis C virus, GT3A, 72 h) it was 1330 nM; in assay [3] (Hepatitis C virus, 72 h), 407 nM. The “GT3a(P89L/K583E)/Ib EC50 Ratio” value in assay [2] came out at 3.27.
